We go through three compounds from ChEMBL document CHEMBL1681727, “X-ray and molecular modelling in fragment-based design of three small quinoline scaffolds for HIV integrase inhibitors” (Bioorg Med Chem, 2011).

Where only a bound is given, the exact number is not on record here.

This assay can be described thus: Inhibition of Human immunodeficiency virus integrase.
`CC(=O)NC1=CC(=O)c2ccc(C)nc2C1=O`: the midpoint of inhibition, the IC50, lay at 77 µM.
In the case of `Cc1ccc2c(O)c(C(=O)O)ccc2n1` it was 47 µM; in that of `Cc1ccc2ccc(C(=O)O)c(O)c2n1`, more than 100 µM.

As usually defined, the IC50 is the concentration that gives 50% inhibition. The low end stands for greater potency in that assay, the high end for weaker potency in that assay.
